{"source": "patent US20230003743A1", "about": "“METHODS AND COMPOSITIONS FOR TREATING OR PREVENTING AN ALLERGY OR ANAPHYLAXIS” (THE CHILDREN'S MEDICAL CENTER CORPORATION, priority 2020, published 2023)", "origin": "cited, not measured here", "tested_on": "humanized mouse model of FA", "settings": "SCID mice engrafted with human CD34+ hematopoietic stem cells, peanut-sensitized, enterally challenged with PN", "data": [{"substance": "Omalizumab", "values": [{"measurement": "anaphylactic response (hypothermia, increases in plasma tryptase levels) upon enteral peanut challenge", "value": "ablates this anaphylactic response"}]}]}
